Like-named read-outs stand apart in the source and are kept apart here.
What was measured:
[1] = system: P. falciparum chloroquine resistant (CQ-R) W2 strain; test: [3H]-labeled hypoxanthine uptake assay, P. falciparum W2; format: cell-based; conditions: Plasmodium falciparum
From the text: (§1) The [^3H]-labeled hypoxanthine uptake method was utilized to assay the effectiveness of our sphingoid base analogs in vitro for their ability to inhibit the growth and replication of malaria parasites in RBCs. […] The simian malaria parasite P. knowlesi has also been recognized as a human pathogen of public health concern in South East Asia, and it can be cultured effectively in vitro. This species was therefore included to probe the potential of multi-species efficacy within this compound class.
(§2) Cryopreserved iRBCs were provided by Dr. John W. Barnwell from the Centers for Disease Control and Prevention and maintained in in vitro culture as described in Trager & Jensen, Science 1976, 193 (4254), 673-5.
(§3) Compounds in Table 1 were dissolved in 70% 200-proof pharmaceutical grade ethanol, and a working solution of 0.2 mg/mL was prepared using hypoxanthine- and gentamicin-free incomplete RPMI 1640 (Gibco). Compounds in Table 2 were dissolved in 200 proof pharmaceutical grade ethanol at a concentration of 50 μM and then conjugated to BSA (Sigma) as described.^5 A working solution of 0.2 mg/mL was prepared using hypoxanthine- and gentamicin-free incomplete RPMI 1640 (Gibco). Two compounds were tested per plate in triplicate starting at 0.2 mg/mL and diluted two-fold down to 0.019 μg/mL using hypoxanthine- and gentamicin-free RPMI.
(§4) Parasite inoculum was prepared by mixing parasitized blood, uninfected 0+RBCs (for P. falciparum strains) or rhesus RBCs (for P. knowlesi) and culture medium (deficient in hypoxanthine and gentamicin) to a final concentration of 1% parasitemia and 1% haematocrit. A negative control was prepared by diluting uninfected erythrocytes to 1% haematocrit in culture medium. [^3H]-labeled hypoxanthine was added at 24 h (for P. falciparum strains) or 12 h (P. knowlesi) and the culture was collected 48 h or 12 h later for P. falciparum or P. knowlesi, respectively. [^3H] uptake was measured by using a scintillation spectrophotometer (Wallac Oy 1450 MicroBeta reader).
(§5) Triplicate wells were used to calculate the IC50 for each compound using the software XLFit v5.2 using the sigmoidal model 601. Average and standard deviations were calculated using Microsoft Excel.

[2] = system: P. falciparum chloroquine susceptible (CQ-S) D6 strain; test: [3H]-labeled hypoxanthine uptake assay, P. falciparum D6; format: cell-based; conditions: Plasmodium falciparum, read-out: IC50 D6
From the text: as §1, §2, §3, §4, §5

P. knowlesi H strain = test: [3H]-labeled hypoxanthine uptake assay, P. knowlesi; format: cell-based; conditions: Plasmodium knowlesi; Table 1; compounds dissolved in 70% ethanol, not BSA-conjugated
From the text: as §1, with “class. The data were generated with the known antimalarial drugs chloroquine and mefloquine as controls.” for “class.”
The H strain of P. knowlesi has been adapted to in vitro culture using Macaca mulatta (rhesus monkey) RBCs essentially as described in Kocken et al., Infect Immun 2002, 70 (2), 655-60 (the media was supplemented with 10% human AB serum).
Chloroquine (Sigma) and mefloquine (Sigma) were used as controls. Compounds in Table 1 were dissolved in 70% 200-proof pharmaceutical grade ethanol, and a working solution of 0.2 mg/mL was prepared using hypoxanthine- and gentamicin-free incomplete RPMI 1640 (Gibco). Compounds in Table 2 were dissolved in 200 proof pharmaceutical grade ethanol at a concentration of 50 μM and then conjugated to BSA (Sigma) as described.^5 A working solution of 0.2 mg/mL was prepared using hypoxanthine- and gentamicin-free incomplete RPMI 1640 (Gibco). Two compounds were tested per plate in triplicate starting at 0.2 mg/mL and diluted two-fold down to 0.019 μg/mL using hypoxanthine- and gentamicin-free RPMI.
as §4, §5

[3] = Mouse PK studies (plasma and RBC levels); format: in vivo; conditions: mice; for PK dose proportionality / plasma half-lives: p.o. 10 or 30 mg/kg single dose
Experimental: Enigmol (E) or N-Methyl-enigmol (NME) were dissolved as 10× stocks in ethanol, then diluted 1:10 in olive oil the day before dosing; dosing solutions were stored at room temperature overnight. Male mice, CD-1 or Swiss Webster (20 to 30 g), were dosed p.o. at either 10 or 30 mg/kg and 5 ml/kg (n=3/time point). For single dose studies with E and NME, bloods were sampled at 0.5, 1, 2, 4, 6, 8, 16 & 24 hrs. For the 5 day repeat dose study with E, samples were taken on day 5 at 0 (trough) 0.5, 1, 2, 4, 6, 8 & 24 hrs. Blood (˜0.3 ml) was obtained either from the submandibular vein using a 4 mm Small Animal Lancet (MEDIpoint), or by retro-orbital bleeding into 200 uL glass micropipettes (Drummond) under isoflurane anesthesia. Each mouse was sampled once and blood transferred immediately to 0.5 ml K EDTA or Li heparin microtainers (BD) in ice water. Tubes were centrifuged at 2000×g for 10 min in a refrigerated centrifuge to separate plasma from RBCs. The plasma supernatants and RBC pellets (when taken) were transferred into separate 1.5 mL Eppendorf tubes in ice water, then frozen on dry ice and stored at −80° C. prior to analysis by LC/MS/MS. Mouse plasma determinations of Enigmol and N-methylenigmol were done using a bioanalytical assay method consisting of a protein precipitation sample preparation step followed by analysis on an AB SCIEX QTRAP® 5500 LC/MS/MS System. The method employed an internal standard (ISTD) spiking technique with D17:0 sphinganine as the ISTD. The lower limit of quantitation (LLOQ) for the assay method was 10 ng/mL and the upper limit of quantitation (ULOQ) for the assay method was 1,000 ng/mL for both Enigmol and N-methylenigmol. Each bioanalytical run consisted of eight matrixes (mouse plasma) spiked calibration standards and six matrixes spiked quality control (QC) samples at three levels (30 ng/mL, 500 ng/mL, and 900 ng/mL) in duplicate along with unknown mouse study samples. […] Estimates of pharmacokinetic parameters from the single dose (10 mg/kg and 30 mg/kg PO) mouse studies were determined using WinNonlin® (Pharsight, Version 5.3).

[4] = Mouse tumor concentrations (human prostate cancer xenograft); format: in vivo, Nude mice; set-up: unit not given here; conditions: tumors harvested, LC/MS/MS
From the text: Nude mice were subjected to human prostate cancer xenograft procedures, and resulting tumors were allowed to grow for 16 days. […] Once the scheduled time course had passed, the mice were sacrificed. Tumors were harvested, homogenized, and analyzed by LC/MS/MS for tumor-drug concentration.

[5] = system: PC-3 prostate cancer cells; test: WST-1 cytotoxicity assay, PC-3; format: cell-based; conditions: 24 h treatment
Experimental: (§6) Prostate cancer cells were treated with enigmol or analogue for 24 h, and cytotoxicity was assessed by WST-1 assay. cLogPs were calculated with QuikProp on Maestro.

[6] = system: LNCaP prostate cancer cells; test: WST-1 cytotoxicity assay, LNCaP; format: cell-based; conditions: Homo sapiens, 24 h treatment
Experimental: as §6

sphingomyelin synthase = conditions: background section; read-out: IC50 sphingomyelin synthase activity in RBCs; cited from earlier work
[7] = system: P. falciparum W2 strain parasites; test: Morphological changes and parasitemia upon incubation, Giemsa-stained thin blood smears; format: cell-based
Experimental: Upon preliminary examination, morphological changes were detected in the P. falciparum W2 strain parasites after incubation of the cultures with N-Methylenigmol (ESPD-507). The effect was evident between 28 h and 48 h of incubation, with a quantitatively high percentage of various aberrant or stunted forms of ring-stage and trophozoite-stage parasites found on Giemsa-stained thin blood smears (see black arrows in FIG. 2 at 28 h highlighting the presence of abundant ring-stage parasites and at 48 h, noting a vacuolated appearance of trophozoite-stage parasites). These findings can be contrasted with the normal growth, development, and maturation of the parasites without the drug.
By the 48 hour time point, the parasitemia increased from 1% to 5.8+/−0.5% with healthy appearing parasites in the control samples, as expected, while it remained at 1.3+/−0.3% and with aberrant parasite forms in the sample incubated with N-Methylenigmol (Table 2). The relative percentages of rings, trophozoites and schizonts in the cultures with and without the ESPD 507 compound were 41.9%, 39.2% and 18.9% versus 87.9%, 4.2% and 8.05, respectively.
Samples were removed every 4 h and thin blood smears were prepared, stained with modified Giemsa stain, and analyzed by light microscopy for morphological changes in growth and development. The modular incubator used was gassed and returned to 37° C. in less than 5 minutes to avoid delay in parasite growth.

[8] = W2, Table 2, compounds conjugated to BSA, read-out: IC50 W2
[9] = D6, Table 2, compounds conjugated to BSA
[10] = W2, Table 1, compounds dissolved in 70% ethanol, not BSA-conjugated, read-out: IC50 W2
[11] = D6, Table 1, compounds dissolved in 70% ethanol, not BSA-conjugated

SMILES	IC50 [1, 8]	IC50 [2, 9]	IC50 (P. knowlesi H strain)	volumes of distribution [3]	PK dose proportionality [3]	plasma half-lives [3]	tumor-drug concentration ([4]; 3 mg/kg p.o. once daily)	tumor-drug concentration ([4]; 10 mg/kg p.o. once daily)	IC50 [1, 10]	IC50 [2, 11]	also measured
CCCCCCCCCCCCC[C@H](O)CC(=O)C(C)(C)N [ESPD-0562, (S)-2-amino-5-hydroxy-2-methyloctadecan-3-one]	2.6 ± 1.5 µM	2.5 ± 0.1 µM	–	–	–	–	–	–	–	–	melting point: 31 to 33 °C
CCCCCCCCCCCCC[C@H](O)C[C@H](O)[C@H](C)N [ESPD-0500, (2S,3S,5S)-2-aminooctadecane-3,5-diol]	9.2 ± 2 µM	5.3 ± 1 µM	10.5 ± 0.38 µM	large	dose proportional	long	317	1565	7.37 ± 1.5 µM	12.6 ± 2.4 µM	Kp at 5 day ([3]; male, mouse, red blood cells (RBC) relative to plasma, po, 30 mg/kg, 30 mg/kg orally once per day, after 5th day of dosing, read-out: drug concentrations in RBCs relative to plasma levels): ~3; plasma levels increase from accumulation ([3]; 30 mg/kg orally once per day, after 5th day of dosing): about 30%; IC50 [5]: 10 µM; IC50 [6]: 13 µM; IC50 ([1]; W2, text b101, summary over W2 and D6 strains, read-out: IC50 / anti-malarial activity on both W2 and D6 strains): 7 to 12 µM
CCCCCCCCCCCCCCCC(=O)NC(CN1CCOCC1)C(O)c1ccccc1 (stereo not drawn) [threo-PPMP, phenyl-2-palmitoylamino-3-morpholino-1-propanol]	–	–	–	–	–	–	–	–	–	–	IC50 (sphingomyelin synthase): 0.85 µM
CCCCCCCCCCCCC[C@H](O)C[C@H](O)[C@H](C)NC [ESPD-0507, N-Methylenigmol]	0.9 ± 0.35 µM	1.7 ± 1 µM	1.72 ± 0.01 µM	large	dose proportional	long	–	–	1.58 ± 0.13 µM	4.7 ± 0.1 µM	parasitemia ([7]; 48 hour time point, start 1%, compound at 546.94 ng/mL): 1.3+/−0.3%; relative percentage of rings ([7]; culture with compound, 48 h): 41.9%; relative percentage of schizonts ([7]; culture with compound, 48 h): 18.9%; relative percentage of trophozoites ([7]; culture with compound, 48 h): 39.2%; IC50 ([1]; W2, text b183, 546.94 ng/mL used for the morphology study, W2, read-out: IC50): 1.73 µM
C[C@H](N)[C@@H](O)C[C@@H](O)CCCCCCCCCCCCC(F)(F)F [CF3-Enigmol, (2S,3S,5S)-2-amino-18,18,18-trifluorooctadecane-3,5-diol]	–	–	–	–	–	–	1147	9004	–	–	–

Source: US20140309275A1, “Sphingosine Analogs, Compositions, and Methods Related Thereto” (Emory University, priority 2011, published 2014)
